According to patent EP4806435A1, “DIHYDROCHROMENE-DERIVATIVE-CONTAINING THERAPEUTIC AGENT FOR CANCER” (Sumitomo Pharma Co., Ltd., priority 2023, dated 2025):

Test system: patients with recurrent malignant glioma classified as WHO grade III or IV
Experiment: Phase 1 dose-escalation clinical trial: safety (TEAEs, DLTs, MTD);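 note: dosing continued until unacceptable toxicity, consent withdrawal, loss to follow-up or investigator/sponsor decision, with cohorts of 1-6 patients per dose level and MTD estimated by BLRM from cumulative DLT data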
[1] = 180 mg QD (N=6), cutoff April 21, 2024
[2] = 240 mg (N=5), cutoff April 21, 2023
[3] = 240 mg QD (N=6), cutoff April 21, 2024
[4] = 360 mg QD (N=6), cutoff April 21, 2024
[5] = 480 mg daily (240 mg BID) (N=6), cutoff April 21, 2024

Procedure: Administration to each subject was continued until unacceptable toxicity occurred, consent was withdrawn, the subject was lost to follow-up, or discontinuation was determined by the investigator and/or the sponsor.
The present study consists of two parts: a dose-escalation part (Part 1) and a dose-expansion part (Part 2).
Each dose level was evaluated in cohorts of 1-6 patients. In all cohorts, administration of the investigational drug to the second and subsequent patients was permitted after completion of all safety assessments on Day 8 of Cycle 1 in the first patient. […] At dose level 2 in the dose-escalation part, at least three patients were required to be evaluated before escalation to a higher dose level. After completion of each cohort, the probability of observing a DLT at each dose level in the present study was updated using the BLRM based on cumulative data from the preceding cohorts, and the MTD was estimated.

CC1(C)Oc2cc(Cl)ccc2[C@@H]2OCC3(CCN(CCn4ccnc4)CC3)C[C@H]21 [Compound 1, (4'aR,10'bR)-8'-chloro-1-[2-(1H-imidazol-1-yl)ethyl]-5',5'-dimethyl-4'a,10'b-dihydro-2'H,4'H,5'H-spiro[piperidine-4,3'-pyrano[3,2-c][1]benzopyran] diphosphate]
TEAE: alopecia [1]: 1 (16.7) n (%) | TEAE: constipation [1]: 2 (33.3) n (%) | TEAE: decreased appetite [1]: 1 (16.7) n (%) | TEAE: decreased lymphocyte count [1]: 1 (16.7) n (%) | TEAE: decreased neutrophil count [1]: 0 n (%) | TEAE: decreased platelet count [1]: 1 (16.7) n (%) | TEAE: diarrhea [1]: 1 (16.7) n (%) | TEAE: dry skin [1]: 1 (16.7) n (%) | TEAE: fall [1]: 2 (33.3) n (%) | TEAE: fatigue [1]: 0 n (%) | TEAE: headache [1]: 0 n (%) | TEAE: hypertrigly-ceridaemia [1]: 1 (16.7) n (%) | TEAE: hyponatremia [1]: 0 n (%) | TEAE: increase in blood cholesterol [1]: 0 n (%) | TEAE: increased alanine aminotransferase [1]: 4 (66.7) n (%) | TEAE: increased aspartate aminotransferase [1]: 2 (33.3) n (%) | TEAE: maculopapular rash [1]: 0 n (%) | TEAE: nausea [1]: 2 (33.3) n (%) | TEAE: seizure [1]: 2 (33.3) n (%) | TEAE: vomiting [1]: 2 (33.3) n (%) | Number of patients with any TEAE [2]: 5 (100) n (%) | TEAE: constipation [2]: 3 (60.0) n (%) | TEAE: decreased appetite [2]: 1 (20.0) n (%) | TEAE: decreased lymphocyte count [2]: 2 (40.0) n (%) | TEAE: decreased neutrophil count [2]: 0 n (%) | TEAE: decreased platelet count [2]: 0 n (%) | TEAE: decreased white blood cell count [2]: 0 n (%) | TEAE: dry skin [2]: 3 (60.0) n (%) | TEAE: fall [2]: 0 n (%) | TEAE: headache [2]: 3 (60.0) n (%) | TEAE: hypertrigly-ceridaemia [2]: 1 (20.0) n (%) | TEAE: hyponatremia [2]: 0 n (%) | TEAE: increased alanine aminotransferase [2]: 4 (80.0) n (%) | TEAE: increased aspartate aminotransferase [2]: 2 (40.0) n (%) | TEAE: nausea [2]: 3 (60.0) n (%) | TEAE: seizure [2]: 1 (20.0) n (%) | TEAE: vomiting [2]: 2 (40.0) n (%) | maximum tolerated dose (MTD) (240 mg BID, dose as the present compound): 480 mg daily | Number of Patients with Any TEAE [3]: 6 (100) n (%) | TEAE: Confusional state [3]: 1 (16.7) n (%) | TEAE: Gait disturbance [3]: 0 n (%) | TEAE: Gastrointestinal disorder [3]: 0 n (%) | TEAE: Hiccups [3]: 0 n (%) | TEAE: Tremor [3]: 0 n (%) | TEAE: alopecia [3]: 1 (16.7) n (%) | TEAE: constipation [3]: 3 (50.0) n (%) | TEAE: decreased appetite [3]: 2 (33.3) n (%) | TEAE: decreased lymphocyte count [3]: 2 (33.3) n (%) | TEAE: decreased neutrophil count [3]: 0 n (%) | TEAE: decreased platelet count [3]: 0 n (%) | TEAE: diarrhea [3]: 1 (16.7) n (%) | TEAE: dry skin [3]: 4 (66.7) n (%) | TEAE: fall [3]: 0 n (%) | TEAE: fatigue [3]: 1 (16.7) n (%) | TEAE: headache [3]: 4 (66.7) n (%) | TEAE: hypertrigly-ceridaemia [3]: 1 (16.7) n (%) | TEAE: hyponatremia [3]: 0 n (%) | TEAE: increase in blood cholesterol [3]: 1 (16.7) n (%) | TEAE: increased alanine aminotransferase [3]: 6 (100) n (%) | TEAE: increased aspartate aminotransferase [3]: 2 (33.3) n (%) | TEAE: maculopapular rash [3]: 0 n (%) | TEAE: nausea [3]: 4 (66.7) n (%) | TEAE: seizure [3]: 1 (16.7) n (%) | TEAE: vomiting [3]: 2 (33.3) n (%) | serious TEAE: neoplasm progression (240 mg QD group, cutoff April 21, 2024): one | serious TEAE: neoplasm progression (240 mg group, cutoff April 21, 2023): one | Number of Patients with Any TEAE [4]: 6 (100) n (%) | TEAE: Confusional state [4]: 0 n (%) | TEAE: Gait disturbance [4]: 1 (16.7) n (%) | TEAE: Gastrointestinal disorder [4]: 1 (16.7) n (%) | TEAE: Hiccups [4]: 0 n (%) | TEAE: Tremor [4]: 2 (33.3) n (%) | TEAE: alopecia [4]: 2 (33.3) n (%) | TEAE: constipation [4]: 2 (33.3) n (%) | TEAE: decreased appetite [4]: 1 (16.7) n (%) | TEAE: decreased lymphocyte count [4]: 0 n (%) | TEAE: decreased neutrophil count [4]: 1 (16.7) n (%) | TEAE: decreased platelet count [4]: 1 (16.7) n (%) | TEAE: diarrhea [4]: 2 (33.3) n (%) | TEAE: dry skin [4]: 0 n (%) | TEAE: fall [4]: 2 (33.3) n (%) | TEAE: fatigue [4]: 3 (50.0) n (%) | TEAE: headache [4]: 1 (16.7) n (%) | TEAE: hypertrigly-ceridaemia [4]: 1 (16.7) n (%) | TEAE: hyponatremia [4]: 1 (16.7) n (%) | TEAE: increase in blood cholesterol [4]: 2 (33.3) n (%) | TEAE: increased alanine aminotransferase [4]: 4 (66.7) n (%) | TEAE: increased aspartate aminotransferase [4]: 3 (50.0) n (%) | TEAE: maculopapular rash [4]: 1 (16.7) n (%) | TEAE: nausea [4]: 6 (100) n (%) | TEAE: seizure [4]: 0 n (%) | TEAE: vomiting [4]: 4 (66.7) n (%) | DLT (Grade 3 maculopapular rash; recovered to Grade 1 with treatment interruption) (360 mg QD, cutoff April 21, 2024): one | DLT: Grade 3 maculo-papular rash (recovered to grade 1 with dose interruption) (360 mg cohort, as of September 2023): one and One | Number of Patients with Any TEAE [5]: 6 (100) n (%) | TEAE: Confusional state [5]: 2 (33.3) n (%) | TEAE: Gait disturbance [5]: 2 (33.3) n (%) | TEAE: Gastrointestinal disorder [5]: 1 (16.7) n (%) | TEAE: Hiccups [5]: 2 (33.3) n (%) | TEAE: Tremor [5]: 0 n (%)
